Reference: patent US20160221948A1, “NITROGEN-CONTAINING SATURATED HETEROCYCLIC COMPOUND” (SUMITOMO CHEMICAL COMPANY, LIMITED, priority 2013, published 2016)

Biological target: human SSTR4 (Homo sapiens, UniProt P31391)
Experiment: Evaluation of agonist activities using human SSTR4-stably expressing cells (aequorin luminescence)
Assay type: cell-based
Set-up: expressed in transfected cells; host or cells: HEK293
Conditions: for SSTR4 agonist activity compared with other compounds: Tables 25 to 27; for EC50: luminescence signal, 1 μmol/L somatostatin taken as 100%
Method: Evaluation of Agonist Activities Using Cells that stably expressing human-derived SSTR4 (human SSTR4-stably expressing cells)
(1) Human SSTR4-Stably Expressing Cells
Human SSTR4-stably expressing cells were prepared, and cultured. Specifically, HEK293 cells, human kidney-derived cells, were used as host cells. By introducing pcDNA3.1 (cat. No. V79020, invitrogen, Carlsbad, Calif., USA) to which human SSTR gene was inserted into HEK293 cells, human SSTR4-stably expressing cell line was obtained. For selection, G418 (cat. No. 16513-84, Nacalai tesque, Japan) was used.
As the culture medium, D-MEM medium (cat. No. 11995, GIBCO, USA), containing 10% FBS and 200 μg/mL G418, was used, the culture was performed in a 225 cm^2 flask (cat. No. 11-006-010, Iwaki, Japan).
At about 80% confluence, the cells were harvested by treating with 20-fold diluted 0.25% Trypsin-EDTA (cat. No. 35554-64, Nacalai, tesque, Japan). The harvested cells were prepared at a reaction medium composed of Hanks Buffer (cat. No. 14065-056, invitrogen, Carlsbad, Calif., USA)/20 mM Hepes (cat. No. 15630-080, invitrogen, Carlsbad, Calif., USA), and 0.1% BSA (cat. No. A7906, Sigma Aldrich, USA) to 70000 cells/mL. Gα16 and apoaequorin were transiently introduced to the harvested cells, and the cells were seeded to a 384 well plate (cat. No. 781090, Greiner, Germany) at about 2000 cells/30 μL/well. On the next day of cell seeding, Coelenterazine H (cat. No. S2011, Promega, USA) was added to each well (10 μL/well) to make a final concentration of 0.5 μmol/L, and the plate was centrifuged. Then, the plate was left at room temperature for 4 hours in shaded state.
(2) Preparation of Test Compounds
DMSO solution of each test compound having 1000-fold larger concentration than the final concentration was prepared. The DMSO solutions were made to have 10-fold concentration than the final concentration with Hanks/20 mmol/L Hepes/0.1% BSA.
(3) Evaluation of Agonist Activity
For detection of luminescence signal due to SSTR4-stimulation, FDSS7000 (manufactured by Hamamatsu Photonics K.K.) was used. To plates having cells and the luminescence substrate, solutions of test compounds were added, then each luminescence signal was measured for 90 seconds, and each relative luminescence unit (RLU) was calculated. Based on luminescence signal from the wells to which a 1 μmol/L somatostatin solution was added taken as 100%, agonist activity of each test compound was evaluated.

human SSTR4, sequence (P31391 whole entry): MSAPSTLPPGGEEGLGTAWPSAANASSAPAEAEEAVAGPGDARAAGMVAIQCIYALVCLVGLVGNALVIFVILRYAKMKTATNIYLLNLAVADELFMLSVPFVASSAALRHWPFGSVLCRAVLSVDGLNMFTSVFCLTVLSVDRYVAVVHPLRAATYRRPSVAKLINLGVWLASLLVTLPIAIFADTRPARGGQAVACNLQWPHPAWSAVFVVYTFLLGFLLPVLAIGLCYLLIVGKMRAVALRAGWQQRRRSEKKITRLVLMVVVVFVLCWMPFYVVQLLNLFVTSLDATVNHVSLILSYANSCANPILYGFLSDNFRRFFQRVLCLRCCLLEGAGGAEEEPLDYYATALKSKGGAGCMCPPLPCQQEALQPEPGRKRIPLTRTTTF

Row | SMILES | SSTR4 agonist activity compared with other compounds | EC50
1 | COc1ccccc1C(C)(C)NC(=O)[C@@H]1CN(C)CC[C@@H]1c1ccccc1 (relative stereo) [Example 107] | – | > 100 nM
2 | COc1ccccc1C(C)(C)NC(=O)[C@@H]1CN(C)CC[C@H]1c1ccccc1 (relative stereo) [Example 108] | stronger SSTR4 agonist activity | 2.2 nM
3 | CN1CCC[C@H](C(=O)NC(C)(C)c2ccccc2F)C1 [Example 1, (3S)—N-[2-(2-fluorophenyl)propane-2-yl]-1-methylpiperidine-3-carboxyamide] | – | 62.7 nM
4 | CN1CCCC(C(=O)NC(c2cccc3ccccc23)C(F)(F)F)C1 (stereo not drawn) [Example 3] | – | 12.6 nM
5 | CN1CCCC(C(=O)NC2(c3cccc4ccccc34)CC(F)(F)C2)C1 (stereo not drawn) [Example 4] | – | 343 nM
6 | Cc1cccc(C2(NC(=O)C3CCCN(C)C3)CC2)c1C (stereo not drawn) [Example 5, N-[1-(2,3-dimethylphenyl)cyclopropyl]-1-methylpiperidine-3-carboxamide] | – | 34.1 nM
7 | Cc1ccc(C(C)(C)NC(=O)C2CCCN(C)C2)cc1C (stereo not drawn) [Example 6] | – | 14.2 nM
8 | Cc1cccc(C(C)(C)NC(=O)C2CCCN(C)C2)c1C (stereo not drawn) [Example 8] | – | 8.9 nM
9 | CN1CCCC(C(=O)NC2(c3cc(Cl)cc(Cl)c3)CCOCC2)C1 (stereo not drawn) [Example 9, N-[4-(3,5-dichlorophenyl)tetrahydro-2H-pyran-4-yl]-1-methylpiperidine-3-carboxamide] | – | 43.3 nM
10 | CN1CCCC(C(=O)NC(C)(C)c2ccc(Cl)c(Cl)c2)C1 (stereo not drawn) [Example 10] | – | 24.2 nM
11 | Cc1cc(Cl)cc(C(C)(C)NC(=O)C2CCCN(C)C2)c1 (stereo not drawn) [Example 11] | – | 8.4 nM

More lines, now with the values ahead:

Row | SSTR4 agonist activity compared with other compounds | EC50 | SMILES
12 | stronger SSTR4 agonist activity | 3.4 nM | C[C@@H]1CC[C@H](C(=O)NC(C)(C)c2cccc3ccccc23)CN1C (relative stereo) [Example 81]
13 | – | 1.1 nM | C[C@@H]1CC[C@@H](C(=O)NC(C)(C)c2cccc3ccccc23)CN1C (relative stereo) [Example 82]
14 | – | 19.8 nM | C[C@@H]1[C@H](C(=O)NC(C)(C)c2cccc3ccccc23)CCCN1C (relative stereo) [Example 84]
15 | stronger SSTR4 agonist activity | 1.5 nM | C[C@@H]1[C@@H](C(=O)NC(C)(C)c2cccc3ccccc23)CCCN1C (relative stereo) [Example 85]
16 | – | 9.4 nM | Cc1c(Cl)cccc1C(C)(C)NC(=O)[C@@H]1CC[C@H](C)N(C)C1 (relative stereo) [Example 87]
17 | – | 7.5 nM | Cc1cccc(C(C)(C)NC(=O)[C@@H]2CC[C@H](C)N(C)C2)c1Cl (relative stereo) [Example 88]
18 | – | 11.2 nM | CC[C@@H]1CC[C@@H](C(=O)NC(C)(C)c2cccc3ccccc23)CN1C (relative stereo) [Example 89]
19 | stronger SSTR4 agonist activity | 3.1 nM | CC[C@@H]1CC[C@H](C(=O)NC(C)(C)c2cccc3ccccc23)CN1C (relative stereo) [Example 90]
20 | – | 7.8 nM | C[C@@H]1CC[C@@H](C(=O)NC(C)(C)c2cccc(Cl)c2Cl)CN1C (relative stereo) [Example 95]
21 | – | 11.7 nM | C[C@@H]1CC[C@H](C(=O)NC(C)(C)c2cccc(Cl)c2Cl)CN1C (relative stereo) [Example 96]
22 | – | > 100 nM | CC[C@@H]1CC[C@@H](C(=O)NC(C)(C)c2cccc(Cl)c2Cl)CN1C (relative stereo) [Example 99]
23 | – | 81.4 nM | COC[C@@H]1CC[C@@H](C(=O)NC(C)(C)c2cccc3ccccc23)CN1C (relative stereo) [Example 104]
24 | – | > 100 nM | COC[C@@H]1CC[C@H](C(=O)NC(C)(C)c2cccc3ccccc23)CN1C (relative stereo) [Example 105]
25 | – | 2 nM | CN1CC[C@@H](c2ccccc2)[C@H](C(=O)NC(C)(C)c2cccc(Cl)c2Cl)C1 (relative stereo) [Example 106]
26 | – | 9.7 nM | Cc1cc(Cl)ccc1C(C)(C)NC(=O)C1CCCN(C)C1 (stereo not drawn) [Example 12, N-[2-(4-chloro-2-methylphenyl)propane-2-yl]-1-methylpiperidine-3-carboxamide]
